The experiment concerns the target Casein kinase 2 (Homo sapiens, UniProt P67870+P68400+P19784+Q8NEV1). The experiment in a line: Inhibition of CK2 (unknown origin). In kind it is protein assay.

Consider `COc1cc2c(cc1O)C[C@H]1c3c(cc(O)c(OC)c3-2)CCN1C` [BOLDINE], for which the 50% inhibitory concentration (IC50) was found to be 700 nM.

The values are drawn from ChEMBL document CHEMBL4480438, “Inhibitory Properties of ATP-Competitive Coumestrol and Boldine Are Correlated to Different Modulations of CK2 Flexibility” (J Nat Prod, 2019).
